The target of assay [1] is T1, mature p20 forms of caspase-7 (Homo sapiens, UniProt P55210).
T1 construct: p20 is mature large subunit of caspase-7 with N-terminal peptide removed; processing of the zymogen to the large and small subunits by activity of the initiator caspases; endogenous in cells
T1 sequence (P55210 24-198 limits assumed): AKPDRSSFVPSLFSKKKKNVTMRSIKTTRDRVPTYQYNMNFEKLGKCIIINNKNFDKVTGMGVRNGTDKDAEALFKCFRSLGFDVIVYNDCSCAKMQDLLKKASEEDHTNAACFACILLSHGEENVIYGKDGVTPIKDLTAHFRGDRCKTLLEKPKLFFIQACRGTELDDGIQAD
T1 sequence (P55210 207-303 limits assumed): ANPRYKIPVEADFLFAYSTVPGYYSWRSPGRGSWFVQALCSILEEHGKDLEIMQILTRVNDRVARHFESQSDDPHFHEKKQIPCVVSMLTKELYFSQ
As to the kind of experiment: Inhibitor specificity in hypotonic 293 extracts, mature p20 caspase-7. Conditions: inhibitor 20 μM for 5 min, then KMB01 30 min. Format: biochemical. The source says:
(§1) FIGS. 6 A-E illustrate that full-length active caspase-7 has unique inhibitor specificity and is processed to mature forms by downstream executioner caspases. (A) The caspase-3 specific inhibitor causes accumulation of a catalytically active full-length form of caspase-7. Cytosolic extracts from 293 cells were activated with cytochrome c/dATP for the indicated times followed by labeling with KMB01 (left panel) and western blotting with a caspase-7 specific antibody (right panel) as in FIG. 5A. […] (B) The exact same experiment as (A) except extracts from MCF-7 cells were used in place of 293 extracts. (**) indicates forms of caspase-7 that are likely a result of the alternative transcription start site at methionine-45 (C) Quantification of the relative activity of FL-C7 in uninhibited 293 extracts (from FIG. 5A), AB06 treated 293 extracts (from (A)) and uninhibited MCF-7 extracts (from (B)) (D) Inhibitor specificity of full-length and processed forms of caspase-7. Extracts (293) were activated for 5 min with cytochrome c/dATP and then incubated with NP-capped AOMK inhibitors containing the indicated primary amino acid sequences for 5 minutes before KMB01 was added and allowed to label residual caspase active sites for 30 minutes. Samples were analyzed by SDS-PAGE followed by biotin blotting using strepavidin-HRP (left panel) or western blotting for caspase-7 (right panel). Identities of labeled caspases are indicated. (E) Specificity of AB06 after prolonged incubation times. Extracts were treated with AB06 at the indicated concentrations simultaneously with cytochrome c/dATP. At the indicated times after activation, samples were labeled with KMB01 (10 μM) for 30 minutes. Labeled caspases were resolved by SDS-PAGE analysis followed by biotin blotting using strepavidin-HRP.
An additional surprising finding from the inhibitor studies was the overall lack of inhibition of the FL-C7 species by AB06 relative to mature p20 forms of caspase-7. This was surprising since the sequence of AB06 (NP-D3VD-AOMK) differs from the KMB01 probe sequence (Bio-EVD-AOMK) only at the P3 residue. […] We therefore wanted to use inhibitors to compare the ability of different P3 elements to bind to full-length and p20 mature forms of caspase-7. […] Samples were analyzed for active site labeling and protein levels of both full-length and p20 forms of caspase-7 were monitored by western blot (FIG. 6D).
(§2) Hypotonic 293 extracts (73 μg of total protein) were activated at 37° C. for 5 minutes as described above. […] Samples (13.5 μg total protein) were analyzed by SDS-PAGE and biotin blotting as described above

Assay [2] concerns the target T2, FL-C7 (full-length caspase-7) (Homo sapiens, UniProt P55210).
T2 construct: the p37 band as the full-length caspase-7 with intact N-terminus (FL-C7); endogenous in cells
T2 sequence (P55210 1-303): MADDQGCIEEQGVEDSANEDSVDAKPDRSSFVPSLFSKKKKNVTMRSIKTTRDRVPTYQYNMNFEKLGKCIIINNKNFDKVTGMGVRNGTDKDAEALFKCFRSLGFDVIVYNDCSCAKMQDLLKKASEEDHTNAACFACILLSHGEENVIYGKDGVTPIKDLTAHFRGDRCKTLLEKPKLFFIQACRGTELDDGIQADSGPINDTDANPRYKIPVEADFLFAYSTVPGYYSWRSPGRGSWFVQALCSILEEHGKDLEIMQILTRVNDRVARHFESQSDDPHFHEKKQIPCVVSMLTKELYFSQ
As to the kind of experiment: Inhibitor specificity in hypotonic 293 extracts, full-length caspase-7. It counts as biochemical. Conditions: inhibitor 20 μM for 5 min, then KMB01 30 min.
Source text: as §1
To further confirm our assignment of the labeled species we treated samples at various activation times with purified recombinant Bir3 domain of XIAP. […]
An additional surprising finding from the inhibitor studies was the overall lack of inhibition of the FL-C7 species by AB06 relative to mature p20 forms of caspase-7. […] Samples were analyzed for active site labeling and protein levels of both full-length and p20 forms of caspase-7 were monitored by western blot (FIG. 6D).
Hypotonic 293 extracts (73 μg of total protein) were activated as described above and allowed to incubate for the indicated times. […] Labeling was carried out for an additional 30 minutes and samples (13.5 μg total protein) were analyzed by SDS-PAGE and biotin blotting as described above.
as §2

A further assay concerns cathepsin B and legumain. As to the kind of experiment: In vivo labeling of cathepsin B and legumain in kidney and spleen of normal mice. To be noted: intravenous, tissues collected 2 hrs after injection. On the procedure:
The present selective caspase inhibitors may be used for in vivo imaging. Cy5-fluorescent labeled versions of AB46 and AB50 were injected into normal mice and labeling of cathepsins and legumain in kidney and spleen was monitored (FIG. 14).
Normal mice were intravenously injected with the probes and tissues were collected 2 hrs after injection. Tissues were homogenized and total protein samples were analyzed by SDS-PAGE followed by scanning of the gel using a fluorescent scanner.

Assay [3] concerns legumain and cathepsin B in RAW cell extracts. The experiment in a line: Direct labeling of RAW cell extracts with Cy5 probes. Conditions: varying concentrations. It counts as binding. The source says: Cy5 fluorescently labeled versions of the three best caspase probes were compared in direct labeling experiments using recombinant caspase-3 (FIG. 13, bottom panels) and RAW cell extracts (FIG. 13, top panels). […] All probes have similar reactivity towards recombinant caspase-3.

For a further assay, the target named is T3, Caspase-3 (Homo sapiens, UniProt P42574).
T3 sequence (P42574 29-175 limits assumed): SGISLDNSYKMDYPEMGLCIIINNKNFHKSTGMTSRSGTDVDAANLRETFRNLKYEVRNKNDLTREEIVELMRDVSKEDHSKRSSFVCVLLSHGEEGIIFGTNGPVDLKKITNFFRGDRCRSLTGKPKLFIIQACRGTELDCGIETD
T3 sequence (P42574 176-277 limits assumed): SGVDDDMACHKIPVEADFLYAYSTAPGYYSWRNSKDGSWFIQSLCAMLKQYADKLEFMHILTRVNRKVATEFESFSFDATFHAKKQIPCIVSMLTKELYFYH
As to the kind of experiment: Kinetic compound screening, progress curve method, caspase-3. Format: biochemical. The source says:
(§3) Table III below presents Ki(app) values for select AB compounds. Ki(app) values (also called Kass or Kobs/I) represent the speed of inhibitor binding to a target enzyme. Units are [M^−1s^−1]. NI indicates no inhibition at concentrations tested. Parent compounds AB09, ABo8, and AB07 that include the optimal substrate specificity sequences for caspases-3, […] as determined by Thornberry and colleagues (Thornberry et al., 19970 are included between double lines.
(§4) The inhibitors AB07 (NP-LEHD-AOMK, caspase-9), AB08 (NP-LETD-AOMK, caspase-8), and AB09 (NP-DEVD-AOMK, caspase-3) were synthesized and kinetic inhibition constants (Kiapp) were obtained for all compounds for caspases 3, 7, 8 and 9 using the progress curve method for pseudo-first order reactions kinetics (Salvesen, 1989) (structures shown in Table I). […] Ki(app) values (also called Kass or Kobs/I) represent the speed of inhibitor binding to a target enzyme. Units are [M-1s-1]. NI indicates no inhibition at concentrations tested, ND indicates data not determined, SD indicates standard deviation.
(§5) Compound screening was completed using the progress curve method as described (Salvesen, 1989). All screening was carried out in caspase reaction buffer. The caspase-9 specific compounds AB38, 40, 41 and 42 were screened in caspase reaction buffer and in caspase buffer with 1M sodium citrate instead of sucrose as described (Pop, 2006) The concentrations of active caspases used is as follows: 5 nM active caspase-3, 5 nM active caspase-7, 10 nM active caspase-8, and 50 nM active caspase-9. To ensure full activation, caspases 3/7, 8 and 9 were preincubated at 37° C. for 5, 10, or 40 minutes respectively before kinetic measurements were made.

The target in a further assay is T4, Caspase-7 (Homo sapiens, UniProt P55210).
T4 sequence (P55210 1-303): T2 sequence (P55210 1-303)
The experiment in a line: Kinetic compound screening, progress curve method, caspase-7. It counts as biochemical.
Source text: as §3, §4, §5

The target in a further assay is Caspase-8 (Homo sapiens, UniProt Q14790). The experiment in a line: Kinetic compound screening, progress curve method, caspase-8. It counts as biochemical.
Source text: as §3, §4, §5

The next assay addresses T5, Caspase-9 (Homo sapiens, UniProt P55211).
T5 sequence (P55211 1-416): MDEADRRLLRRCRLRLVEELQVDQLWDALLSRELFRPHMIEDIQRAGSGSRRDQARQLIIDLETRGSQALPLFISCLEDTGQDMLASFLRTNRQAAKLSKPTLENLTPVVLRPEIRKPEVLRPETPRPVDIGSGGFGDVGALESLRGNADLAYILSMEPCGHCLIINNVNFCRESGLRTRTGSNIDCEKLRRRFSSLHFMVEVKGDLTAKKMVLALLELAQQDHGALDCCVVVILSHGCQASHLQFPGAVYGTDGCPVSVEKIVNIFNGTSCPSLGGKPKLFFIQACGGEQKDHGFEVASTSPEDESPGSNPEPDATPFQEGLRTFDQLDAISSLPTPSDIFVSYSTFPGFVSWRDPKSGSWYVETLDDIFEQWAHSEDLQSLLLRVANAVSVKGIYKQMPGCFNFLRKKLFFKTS
As to the kind of experiment: Kinetic compound screening, progress curve method, caspase-9. It counts as biochemical. Conditions: NI = no inhibition at concentrations tested.
Source text: as §3, §4, §5

Assay [4] has as its system death receptor-mediated liver injury. Conditions: animal models; cited from earlier work.
For assay [5], the system named is Myocardial infarction and the resulting death of myocytes. To be noted: animal models; cited from earlier work.
A further assay concerns sepsis. Conditions: mouse model; cited from earlier work.
In assay [6] the test system is extrinsic and intrinsic apoptotic pathways after spinal cord injury. Conditions: animal models; cited from earlier work.

Residues, ends and D or L forms follow the SMILES beside them. *: point of attachment. Cbz = O=C(OCc1ccccc1)*; CH2F = FC* Where only a bound is given, the exact number is not on record here.

These results are taken from patent publication US20100068150A1, “Selective Caspase Inhibitors” (The Board of Trustees of the Leland Stanford Junior …, priority 2006, published 2010).

Chain of Caspase-8 (Q14790 217-479): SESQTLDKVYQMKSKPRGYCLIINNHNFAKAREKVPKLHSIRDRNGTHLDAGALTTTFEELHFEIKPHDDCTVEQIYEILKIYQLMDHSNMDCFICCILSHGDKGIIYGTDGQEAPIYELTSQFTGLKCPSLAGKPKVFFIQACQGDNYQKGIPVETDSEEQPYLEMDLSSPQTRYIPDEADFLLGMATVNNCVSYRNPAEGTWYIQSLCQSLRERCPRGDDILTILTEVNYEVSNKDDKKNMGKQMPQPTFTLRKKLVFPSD

On to `Cc1cccc(C)c1C(=O)OCC(=O)[C@H](CC(=O)O)NC(=O)[C@@H](NC(=O)[C@H](Cc1ccncc1)NC(=O)Cc1ccccc1)C(C)C` [AB37, Cbz-3-V-D-AOMK], for which the “block of KMB01 labeling of mature p20 caspase-7” value in assay [1] is recorded as “incomplete inhibition”. The “inhibition of FL-C7 labeling” value in assay [2] is “relatively insensitive to inhibition”.

As to `CC[C@H](NC(=O)[C@@H](CCC(=O)O)NC(=O)Cc1ccc(O)c([N+](=O)[O-])c1)C(=O)N[C@@H](CC(=O)O)C(=O)COC(=O)c1c(C)cccc1C` [AB46, Np-E-8-D-AOMK], the “in vivo labeling in kidney and spleen” value in the assay with cathepsin B and legumain is “significant labeling of both legumain and cathepsin B”.

As to Cy5-hex-EPD-AOMK [AB50-Cy5], the “direct labeling of off targets in RAW cell extracts” value in [3] was “only labels legumain”.

As for `COC(=O)C[C@H](NC(=O)[C@H](C)NC(=O)[C@@H](NC(=O)OCc1ccccc1)C(C)C)C(=O)CF` [ZVAD-fmk, benzyloxycarbonyl-Val-Ala-Asp-fluoromethylketone, reference compound] (Cbz-Val-Ala-Asp(OMe)-CH2F), at Caspase-3 (Table III, Ki(app) = Kass or Kobs/I, 5 nM active caspase-3), the “Ki(app) Caspase-3” value is 25922 M⁻¹ s⁻¹. Moreover, the “Caspase-3 Ki(app)” value on Caspase-3 (Table IV) is recorded as 25,922 M-1s-1. Further, the “Ki(app) Caspase-7” value at Caspase-7 (Table III, Ki(app) = Kass or Kobs/I, 5 nM active caspase-7) was <5,000 M^−1s^−1. Besides, the “Caspase-7 Ki (app)” value at Caspase-7 (Table IV) is <5,000 M-1s-1. For the same compound, the “Ki(app) Caspase-8” value at Caspase-8 (Table III, Ki(app) = Kass or Kobs/I, 10 nM active caspase-8) worked out at 203286 M⁻¹ s⁻¹. In addition, the “Caspase-8 Ki (app)” value at Caspase-8 (Table IV, NI = no inhibition at concentrations tested) is reported as 203,286 M-1s-1. Moreover, the “Ki(app) Caspase-9” value on Caspase-9 (Table III, Ki(app) = Kass or Kobs/I, 50 nM active caspase-9) is reported as <5,000 M^−1s^−1. Moreover, the “Caspase-9 Ki (app)” value at Caspase-9 (Table IV) is on record as <5,000 M-1s-1. Moreover, the “protection against liver injury” value in [4] was “protective and efficiently blocked death receptor-mediated liver injury”. Also, the “effect on myocardial infarction and death of myocytes” value in [5] is “ameliorated”. In addition, the effect on sepsis entry with sepsis was “efficiently reduced”. Moreover, the “effect after spinal cord injury” value in assay [6] is “reduced lesion size and improved motor function”.

Consider `Cc1cccc(C)c1C(=O)OCC(=O)[C@H](CC(=O)O)NC(=O)[C@@H](NC(=O)[C@H](CCC(=O)O)NC(=O)Cc1ccc(O)c([N+](=O)[O-])c1)C(C)C` [AB45, Np-E-V- D-AOMK], for which the “block of KMB01 labeling of mature p20 caspase-7” value in [1] is given as “efficiently blocked labeling”. Further, in assay [2], the “inhibition of FL-C7 labeling” value was “almost totally inhibited”.
